{
  "source": "patent US11013714B2",
  "about": "“Use of homoeriodictyol (HED) for reducing the gastric acid secretion-stimulating effect of n-acetyl-4-aminophenol (Paracetamol)” (SYMRISE AG, priority 2016, dated 2021)",
  "key": {"[1]": {"system": "HGT-1 cells", "settings": "cited from earlier work"}, "[2]": {"system": "HGT-1 cells", "assay": "Proton secretion in HGT-1 cells (intracellular pH, SNARF-1-AM dye)", "format": "cell-based, human", "method": "Human parietal cells (human gastric tumour cell line, HGT-1) were used as cellular model. These were provided by Dr. C. Laboisse (Laboratory of Pathological Anatomy, Nantes, France). The cells are cultured at standard conditions at 37° C., 5% CO2 in DMEM (Dulbecco's Modified […] Medium) with 4 g/L glucose, 10% FBS, 2% L-glutamine and 1% Penicillin/Streptomycin. For measuring the intracellular proton concentration, the cells are treated with Trypsin/EDTA, the cellular viability was determined with Trypan blue staining and 100 000 cells/well were seeded in black 96-well plates. […] The cells in the 96-well plates are washed once with Krebs-Hepes-buffer (KRHP) and incubated with the dye in a concentration of 3 μM dissolved in KRHP for 30 min at 37° C. and 5% CO2. Afterwards, the cells are washed twice with KRHP and substances stimulating gastric acid secretion, as for example 3 mM caffeine, 0.3 mM Theobromine or 3 mM Paracetamol alone or in combination with substances for reducing the gastric acid stimulating effect of the above substances, for example Homoeriodictyol (HED), in various concentrations in phenol red free DMEM in a volume of 100 μL were added; as a further control, the substances stimulating gastric acid secretion as named above were tested alone. Homoeriodictyol is dissolved in double distilled water. The final concentration of solvent, which is added to the cells, is at most 1%. The fluorescent dye is excited at the wave length of 488 nm and the emission is measured at 580 nm and 640 nm. […] For the calibration curve, the cells are treated with a potassium buffer in different pH values of from 7.2 to 8.2 and 2 μM Nigericin. Nigericin equilibrates the intracellular and extracellular pH value so that the intracellular pH value can be defined. The intracellular H^+-concentration is obtained from the intracellular pH value. The intracellular proton index (IPX) is calculated by log 2 transformation of the ratio of treated cells and untreated cells (control) ([…].; Somoza, M. M.; Hofmann, T.; Somoza, V., Mol Nutr Food Res 2012, 56, 325-335; Rubach, M.; Lang, R.; Hofmann, T.; Somoza, V., Ann N Y Acad Sci 2008, 1126, 310-4; […].; Hofmann, T.; Somoza, V., J Agric Food Chem 2010, 58, 4153-61; Weiss, […].; Blumberg, S.; Frank, O.; Hofmann, T.; Somoza, V., J Agric Food Chem 2010, 58, 1976-85; Liszt, K. I.; Walker, J.; Somoza, V., J Agric Food Chem 2012, 60, 7022-7030; Walker, J.; Hell, J.; Liszt, […].; Hofmann, T.; Somoza, V., J Agric Food Chem 2012, 60, 1405-12). The number of indicated replicates relates to technical replicates (tr) or the number of total replicates (n), which results from the number of technical replicates multiplied with the number of biological replicates. […] Statistics: one-way Anova with Holm-Sidak post-hoc test. Significant differences (p<0.05) are indicated by letters."}, "[3]": {"target": "T1, TAS2R39 (Homo sapiens, UniProt P59534)", "T1 sequence (P59534 1-338)": "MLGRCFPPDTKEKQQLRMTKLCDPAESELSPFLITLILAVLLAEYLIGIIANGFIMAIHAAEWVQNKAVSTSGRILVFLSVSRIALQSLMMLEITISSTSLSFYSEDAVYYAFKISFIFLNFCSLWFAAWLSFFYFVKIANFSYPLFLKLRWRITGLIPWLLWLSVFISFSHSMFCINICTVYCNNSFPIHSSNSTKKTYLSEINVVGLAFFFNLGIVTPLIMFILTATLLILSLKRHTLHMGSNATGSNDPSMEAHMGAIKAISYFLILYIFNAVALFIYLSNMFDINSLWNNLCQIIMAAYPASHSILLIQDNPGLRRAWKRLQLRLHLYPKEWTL", "settings": "Roland et al., J. Agric. Food Chem. 2013; cited from earlier work"}, "[4]": {"target": "T2, TAS2R43 (Homo sapiens, UniProt P59537)", "T2 sequence (P59537 1-309)": "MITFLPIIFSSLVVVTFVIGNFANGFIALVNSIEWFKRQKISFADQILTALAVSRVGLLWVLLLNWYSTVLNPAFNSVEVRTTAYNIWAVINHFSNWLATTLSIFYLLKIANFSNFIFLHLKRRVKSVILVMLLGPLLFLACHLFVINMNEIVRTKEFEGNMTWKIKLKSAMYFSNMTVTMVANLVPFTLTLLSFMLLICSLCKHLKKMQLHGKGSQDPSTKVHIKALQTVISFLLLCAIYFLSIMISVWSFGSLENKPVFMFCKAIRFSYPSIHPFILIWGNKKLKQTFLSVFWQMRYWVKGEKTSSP", "assay": "Own experiments on bitter receptor TAS2R43"}},
  "note": "Values joined by “and” are separate entries in the source; they are usually repeats but may differ in a detail not shown here. Identical values can stand only once. Like-named read-outs stand apart in the source and are kept apart here.",
  "data": [
    {"molecule": "Cn1c(=O)c2c(ncn2C)n(C)c1=O", "note": "[Caffeine, caffeine, reference compound]", "values": [
      {"measurement": "percentage increase (positive values) or decrease (negative values) of the proton secretion, mean", "setting": "[1]; 3 mM caffeine alone (DMEM), 10 minutes stimulation", "result": 54.80, "unit": "%"},
      {"measurement": "percentage increase (positive values) or decrease (negative values) of the proton secretion, mean", "setting": "[1]; 3 mM caffeine alone (DMEM), 10 minutes stimulation, listed as caffeine", "result": 55, "unit": "%"}
    ]},
    {"molecule": "COc1cc(C2CC(=O)c3c(O)cc(O)cc3O2)ccc1O", "note": "(centres unmarked) [HED, 3′-Methoxy-4′,5,7-trihydroxy flavanone]", "values": [
      {"measurement": "percentage increase (positive values) or decrease (negative values) of the proton secretion, mean", "setting": "[1]; 0.3 mM Theobromine + 0.003 mM HED, 10 minutes", "result": 21.56, "unit": "%"},
      {"measurement": "percentage increase (positive values) or decrease (negative values) of the proton secretion, mean", "setting": "[1]; 0.3 mM Theobromine + 0.03 mM HED, 10 minutes", "result": "14% and 13.79%"},
      {"measurement": "percentage increase (positive values) or decrease (negative values) of the proton secretion, mean", "setting": "[1]; 0.3 mM Theobromine + 0.3 mM HED, 10 minutes", "result": "−16.92", "unit": "%"},
      {"measurement": "percentage increase (positive values) or decrease (negative values) of the proton secretion, mean", "setting": "[1]; 3 mM caffeine + 0.03 mM HED, 10 minutes", "result": 38, "unit": "%"},
      {"measurement": "percentage increase (positive values) or decrease (negative values) of the proton secretion, mean", "setting": "[1]; 3 mM caffeine + 0.3 mM HED, 10 minutes", "result": "20% and 20.20%"},
      {"measurement": "proton secretion decreased by", "setting": "[1]; simultaneous incubation with 0.3 mM Theobromine and 0.3 mM HED", "result": 17, "unit": "%"},
      {"measurement": "effect on the proton secretion in HGT-1-cells", "setting": "[1]; sole HED, without gastric acid secretion-stimulating substances (WO 2014111436 A1)", "result": "no significant effect"},
      {"measurement": "percentage increase (positive values) or decrease (negative values) of the proton secretion, mean", "setting": "[2]; 3 mM Paracetamol + 0.003 mM HED, 10 minutes", "result": 10.96, "unit": "%"},
      {"measurement": "percentage increase (positive values) or decrease (negative values) of the proton secretion, mean", "setting": "[2]; 3 mM Paracetamol + 0.03 mM HED, 10 minutes", "result": "7% and 6.57%"},
      {"measurement": "percentage increase (positive values) or decrease (negative values) of the proton secretion, mean", "setting": "[2]; 3 mM Paracetamol + 0.3 mM HED, 10 minutes", "result": "−46.24", "unit": "%"},
      {"measurement": "effect on constitutive acid secretion", "setting": "[2]; 3 mM Paracetamol, addition of 0.3 mM HED, compared to control without active substances", "result": "significant reduction of the constitutive acid secretion"},
      {"measurement": "proton secretion induced by 3 mM Paracetamol", "setting": "[2]; addition of 0.003 or 0.03 mM HED", "result": "reduced"},
      {"measurement": "proton secretion increased by", "setting": "[2]; simultaneous incubation with 3 mM Paracetamol and 0.003 mM HED", "result": 11, "unit": "%"},
      {"measurement": "proton secretion reduced by", "setting": "[2]; simultaneous incubation with 3 mM Paracetamol and 0.3 mM HED", "result": 46, "unit": "%"},
      {"measurement": "effect at receptor type TAS2R39", "setting": "[3]", "result": "agonist"},
      {"measurement": "effect at receptor type TAS2R43", "setting": "[4]", "result": "antagonist"}
    ]},
    {"molecule": "CC(=O)Nc1ccc(O)cc1", "note": "[Paracetamol, N-(4-Hydroxyphenyl)acetamide]", "values": [
      {"measurement": "percentage increase (positive values) or decrease (negative values) of the proton secretion, mean", "setting": "[2]; 3 mM Paracetamol alone (DMEM), 10 minutes stimulation", "result": "24% and 24.10%"}
    ]},
    {"molecule": "Cn1cnc2c1c(=O)[nH]c(=O)n2C", "note": "[Theobromine, reference compound]", "values": [
      {"measurement": "percentage increase (positive values) or decrease (negative values) of the proton secretion, mean", "setting": "[1]; 0.3 mM Theobromine alone (DMEM), 10 minutes stimulation", "result": "21% and 20.92%"}
    ]}
  ]
}
